Assay results published in patent publication US10881718B2, “Bifunctional conjugate compositions and associated methods” (priority 2010, dated 2021).
Non-standard residues stand in square brackets, D forms with d. No end group written: not given here. Ahx = NCCCCCC(=O)O

Experiments:
[1] = tested on: EAE model induced in SJL/J mice; test: Suppression of EAE by SAgAs and NP-Arrays (Example 1); format: in vivo; conditions: PLP conc. 100 nMol (100* for LABL-only arrays); s.c. days 4, 7, 10
Description: (§1) Induction of EAE and Therapeutic Study.
SJL/J (H-2s) female mice, 4-6 weeks old, were purchased from The Jackson Laboratory and housed under specified, pathogen-free conditions at The University of Kansas. All protocols involving live mice were approved by the Institutional Animal Care and Use Committee. Mice were immunized subcutaneously (s.c) with […] of PLP139-151 in a 0.2 mL emulsion composed of equal volumes of phosphate-buffered saline (PBS) and complete Freund's adjuvant (CFA) containing killed Mycobacterium tuberculosis strain H37RA (final concentration of 4 mg/mL; Difco). The PLP139-151/CFA was administered to regions above the shoulders and the flanks (total of four sites; 50 μL at each injection site). In addition, 200 ng/100 μL of pertussis toxin (List Biological Laboratories Inc.) was injected intraperitoneally (i.p.) on the day of immunization (day 0) and 2 days post-immunization. The mice received s.c. injections of each sample, equivalent to 100 nMol PLP/100 μL, on days 4, 7, 10. All NP samples were sonicated to disperse NPs before injection. For HA samples and controls, 100 μL of each vehicle was injected. […] Body weight was also measured daily.
Statistical differences were determined by comparing treated groups to the negative control (PBS) for clinical disease score and body weight. […]
The SAgAs and NP-Arrays were evaluated in an EAE model induced in SJL/J mice. […]

[2] = tested on: EAE model induced in SJL/J mice; test: Suppression of EAE by SAgAs: cell adhesion target and size (Example 2); format: in vivo; conditions: PLP conc. 100 nMol as printed in Table 11
Description: as §1
Four-6 week-old SJL/J female mice were immunized subcutaneously (s.c) with […] of PLP139-151 in a 0.2 mL emulsion composed of equal volumes of complete Freund's adjuvant (CFA) containing killed Mycobacterium tuberculosis strain H37RA (final concentration of 4 mg/mL; Difco) and phosphate-buffered saline (PBS) containing PLP. The PLP139-151/CFA emulsion was administered to regions above the shoulders and the flanks (total of four sites; 50 μL at each injection site). Additionally, 200 ng/100 μL of pertussis toxin (List Biological Laboratories Inc.) was injected intraperitoneally (i.p.) on the day of immunization (day 0) and 2 days post-immunization. […] One hundred μL of each vehicle was injected for all samples and controls. […] Body weight was also measured daily.
Statistical differences were determined by comparing treated groups to the negative control (PBS) for clinical disease score and body weight. […] For individual clinical day scores and cytokine measurements T test was employed. All analyses were performed using GraphPad Software (GraphPad Software Inc.).
Efficacy of SAgAs was evaluated in the EAE model induced in SJL/J mice. The study design is outlined in Table 11 below. Typically disease onset occurs at approximately day 8 and progresses to remission around day 20. […]

[3] = tested on: IFN-γ; test: Plasma cytokine analysis (ELISA) in EAE mice: IFN-γ; format: in vivo, SJL/J mice
Description: (§2) Blood samples were taken from each mouse via mandibular bleeds (˜100 uL) on days 0, 6, 12, 18, 25. To ensure there was enough sample to perform ELISA cytokine testing blood from, two mice within the same group was pooled at each time point for a total of four samples per group. Samples were collected in heparin-containing tubes and centrifuged to separate red blood cells. Plasma was collected and sent for cytokine analysis to the Cytokine Core Laboratory at the University of Maryland. The cytokines analyzed were IL-2, IL-4, IL-10, IL-17, TNF-α, and TGF-β.

[4] = tested on: TNF-α; test: Plasma cytokine analysis (ELISA) in EAE mice: TNF-α; format: in vivo, SJL/J mice; conditions: day 6; PBS 1.8 pg/mL
Description: as §2

[5] = tested on: IL-17; test: Plasma cytokine analysis (ELISA) in EAE mice: IL-17; format: in vivo, SJL/J mice
Description: as §2

[6] = parameters: species or system mice; conditions: mouse, in vivo, sc
Description: In Vivo Imaging. In vivo imaging was completed using the Maestro Imaging Suite. Animals were anesthetized using an isoflurane vaporizer and IR-820 labeled SAgA was injected s.c. at the base of the neck. After injection images were taken of the animal's top, left, bottom, and right side by rotating the animal in the exposure pane. The animal was imaged at defined time points over a 24 hour period to track the drainage and clearance of the SAgA from the injection site.

For “HSLGKWLGHPDKF-AcGAcGAc-ITDGEATDSG (HSLGKWLGHPDKF[Ahx]G[Ahx]G[Ahx]ITDGEATDSG) [PLP-BPI]”, the “Clinical Data Significance compared to PBS: % Weight loss” value [1] was “Days 12-16, 18-22, p < 0.01”, the “Clinical Data Significance compared to PBS: Score” value [1] was “Day 12, p < 0.001” and the “Clinical Significance vs PBS: % Weight loss” value [2] was “p < 0.05, Days 16”. The “Clinical Significance vs PBS: Score” value ([2]; s.c. days 4, 7, 10) was “p < 0.05, Days 14 & 17”, the “reduction in peak expression of IFN-γ compared to PBS controls” value ([3]; Day 6) was roughly 40% and the “average plasma concentration of IFN-γ” value ([3]; day 6, PBS 72 pg/mL) was 31 pg/mL. For the same substance, the “plasma TNF-α peak concentration” value [4] was 3.1 pg/mL, the “plasma IL-17 concentration” value ([5]; day 6, PBS 23 pg/mL) was 40 pg/mL and the “plasma IL-17 concentration” value ([5]; day 12) was 31 pg/mL.
For Hyaluronic acid [70 kDa HA], the “time of drainage/clearance of IR820-labeled material from the injection site” value [6] was 500 min.
For Hyaluronic acid [HA], the “time of drainage/clearance of IR820-labeled material from the injection site” value [6] was no more than 1440 min.
